This note sets out measurements from patent US20030129134A1, “Method of monitoring neuroprotective treatment” (Pfizer Inc., priority 2001, published 2003).

This assay has as its system S-100b. In words: Serum S-100b levels in patients with severe contusive-type head trauma treated by constant infusion. It counts as in vivo, human. The note with it: constant infusion for 72 hours, serum samples out to 120 hours post-infusion, luminometric immunoassay. An excerpt:
Levels of S-100b can be measured in a biological sample of a patient's blood or CSF using a commercially available immunoradiometric assay or luminometric immunoassay kit such as those available from Byk-Sangtec Diagnostica GmbH & Co. (Dietzenbach, Germany), which are based on a two-site immunoluminometric sandwich assay using the commercially available LIAISON® Sangtec® S-100 assay system. In this assay system, paramagnetic particles are coated with two anti-S100b monoclonal antibodies directed to different epitopes, and a secondary anti-S100b monoclonal antibody labeled with an isoluminol derivative is provided as detection antibody. The paramagnetic particles, assay buffer, and biological sample are first incubated and unbound material is removed by a wash cycle. […] Subsequently, starter reagents that activate the chemoluminscent reaction are added and the S-100b concentration is determined via the chemiluminescence reaction induced by the previously added reagents. The light signal is measured in relative light units (RLUs) and is directly proportional to the amount of S-100b protein in the sample. […]
S-100b levels were measured in the serum of patients suffering from severe contusive-type head trauma. […] S-100b levels were determined using a commercially available luminometric immunoassay kit from Byk-Sangtec Diagnostica GmbH & Co. (Dietzenbach, Germany).

In the case of `C[C@@H]([C@@H](O)c1ccc(O)cc1)N1CCC(O)(c2ccccc2)CC1` [CP-101,606, (1S,2S)-1-(4-hydroxyphenyl)-2-(4-hydroxy-4-phenylpiperidin-1-yl)-1-propanol], the “S-100b levels in serum compared to the placebo group” value is listed as “significantly reduced”.
